The values that follow come from patent US20210161135A1, “WEED CONTROL FROM APPLICATIONS OF PYRIDINE CARBOXYLIC ACID HERBICIDES AND 4-HYDROXYPHENYL-PYRUVATE DIOXYGENASE (HPPD) INHIBITORS” (Dow AgroSciences LLC, priority 2018, published 2021).

Molecules are shown by their SMILES.

What all share (assay): Postemergence herbicidal activity, greenhouse, visual injury after 20-22 d
Common to all, as to assay type: in vivo

The subject of assay [1] is common lambsquarters (Chenopodium album L., CHEAL). The procedure:
(§1) Seeds of the desired test plant species were planted in Sun Gro MetroMix® 306 planting mixture, which typically has a pH of 6.0 to 6.8 and an organic matter content of about 30 percent, in plastic pots with a surface area of 103.2 square centimeters (cm^2). When required to ensure good germination and healthy plants, a fungicide treatment and/or other chemical or physical treatment was applied. The plants were grown for 7-36 days (d) in a greenhouse with an approximate 14-hour (h) photoperiod which was maintained at about 23° C. during the day and 22° C. during the night. Nutrients and water were added on a regular basis and supplemental lighting was provided with overhead metal halide 1000-Watt lamps as necessary. The plants were employed for testing when they reached the second or third true leaf stage.
(§2) An emulsifiable concentrate (EC) formulation containing Compound 1 at 100 gai/L was prepared by combining Compound 1 with 1-butyl-2-pyrrolidinone (Tamisolve NxG; 360.5 g/L), benzyl acetate (544.6 g/L) and Agnique MBL 520L surfactant (52.9 g/L). […] The concentrated stock solutions were diluted with an aqueous mixture of 1.5% v/v of Agri-dex crop oil concentrate to provide the appropriate application rates. Compound requirements are based upon a 12 milliliter (mL) application volume at a rate of 187 liters per hectare (L/ha). Spray solutions of the experimental compound mixtures were prepared by adding the stock solutions to the appropriate amount of dilution solution to form a 12 mL spray solution in two-way combinations. Formulated compounds were applied to the plant material with an overhead Mandel track sprayer equipped with 8002E nozzles calibrated to deliver 187 L/ha over an application area of 0.503 square meters (m^2) at a spray height of […] above average plant canopy. Control plants were sprayed in the same manner with the solvent blank. Application rates for component (a) are in g ai/ha, and application rates for component (b) are in g ai/ha.
(§3) The treated plants and control plants were placed in a greenhouse as described above and watered by sub-irrigation to prevent wash-off of the test compounds. After 20-22 d, the condition of the test plants as compared with that of the control plants was determined visually and scored on a scale of 0 to 100 percent where 0 corresponds to no injury and 100 corresponds to complete kill. […] The Colby method was used to determine the herbicidal effects expected from the mixtures.

The subject of assay [2] is wild buckwheat (Polygonum convolvulus, POLCO). As for the experimental part: as §1, §2, §3
The subject of assay [3] is poinsettia (Euphorbia heterophylla, EPHHL). The procedure:
as §1, §2, §3

In assay [4] the test system is wild pansy (Viola tricolor, VIOTR). As for the experimental part:
as §1, §2, §3

The subject of assay [5] is pigweed (Amaranthus retroflexus, AMARE). The settings on record: two trials. The procedure: as §1, §2, §3
Assay [6] relates to giant foxtail (Setaria faberi, SETFA). The procedure: as §1, §2, §3
The subject of assay [7] is soybean (Glycine max, GLXMA). Conditions: two trials. As for the experimental part:
as §1, §2, §3

For assay [8], the system named is thistle (Cirsium arvense CIRAR). The procedure:
as §1, §2, §3

For assay [9], the system named is sunflower (Helianthus annuus, HELAN). Conditions: two trials. The procedure:
as §1, §2, §3

The test system of assay [10] is spring rape (Brassica napus, BRSNN). The procedure: as §1, §2, §3
Assay [11] has as its system winter wheat (Triticum aestivum, TRZAW). Conditions: Sulcotrione 75 g ai/ha alone, two trials. The procedure:
as §1, §2, §3

For assay [12], the system named is ivyleaf morningglory (Ipomoea hederacea, IPOHE). Conditions: two trials. The procedure: as §1, §2, §3
The test system of assay [13] is velvetleaf (Abutilon theophrasti, ABUTH). As for the experimental part:
as §1, §2, §3

Assay [14] concerns kochia (Kochia scoparia, KCHSC). As for the experimental part:
as §1, §2, §3

In assay [15] the test system is maize (Zea mays, ZEAMX). The settings on record: two trials. As for the experimental part: as §1, §2, §3
Assay [16] deals with barnyardgrass (Echinochloa crus-galli, ECHCG). Conditions: two trials. The procedure:
as §1, §2, §3

Assay [17] concerns common chickweed (Stellaria media, STEME). The settings on record: two trials. The procedure:
as §1, §2, §3

Assay [18] has as its system rice (Oryza sativa, ORYSA). Conditions: Sulcotrione 75 g ai/ha alone, two trials. As for the experimental part:
as §1, §2, §3

Assay [19] has as its system grain sorghum (Sorghum vulgare, SORVU). The settings on record: two trials. As for the experimental part: as §1, §2, §3
Assay [20] relates to winter rape (Brassica napus, BRSNW). Conditions: two trials. The procedure: as §1, §2, §3
In assay [21] the test system is large crabgrass (Digitaria sanguinalis, DIGSA). The settings on record: HPPD inhibitor 35 g ai/ha alone, two trials. As for the experimental part: as §1, §2, §3
Where [22] appears, read: Sulcotrione 75 g ai/ha alone, two trials.
Where [23] appears, read: HPPD inhibitor 35 g ai/ha alone, two trials.
Where [24] appears, read: HPPD inhibitor 35 g ai/ha alone.

`CS(=O)(=O)c1ccc(C(=O)C2C(=O)CCCC2=O)c(Cl)c1` [Sulcotrione, 2-[2-chloro-4-(methylsulfonyl)benzoyl]-1,3-cyclohexanedione]: the “Effect (% visual injury), Obs” value in assay [1] (setting [22]) stood at 100%; in [2] (setting [22]), 48%; in [3] (setting [22]), 60%; in [4] (setting [22]) it was 73%; in [5] (Sulcotrione 75 g ai/ha alone), 40%; in assay [6] (setting [22]), 0%. The “Effect (% visual injury), Obs” value in [7] (Sulcotrione 75 g ai/ha alone) is 65%; in assay [8] (setting [22]), 70%; in assay [9] (Sulcotrione 75 g ai/ha alone), 80%; in assay [10] (setting [22]) it was 95%; in [11], 0%; in [12] (Sulcotrione 75 g ai/ha alone), 65%. Besides, the “Effect (% visual injury), Obs” value is 50% in [13] (setting [22]); 45% in assay [14] (setting [22]); 0% in [15] (Sulcotrione 75 g ai/ha alone); 40% in assay [16] (Sulcotrione 75 g ai/ha alone); 85% in assay [17] (Sulcotrione 75 g ai/ha alone); 5% in assay [18]. In addition, the “Effect (% visual injury), Obs” value in assay [19] (Sulcotrione 75 g ai/ha alone) was determined as 0%; in assay [20] (Sulcotrione 75 g ai/ha alone), 70%.

In the case of `CS(=O)(=O)c1ccc(C(=O)C2C(=O)CCCC2=O)c([N+](=O)[O-])c1` [Mesotrione, 2-[4-(methylsulfonyl)-2-nitrobenzoyl]-1,3-cyclohexanedione], the “Effect (% visual injury), Obs” value in assay [21] came out at 20%; in [1] (setting [23]), 100%; in [2] (setting [23]), 48%; in [3] (setting [23]), 20%; in assay [4] (setting [23]), 58%; in [5] (setting [24]) it was 30%. The “Effect (% visual injury), Obs” value turned out to be 0% in assay [6] (setting [23]); 70% in assay [7] (setting [24]); 100% in [8] (setting [23]); 93% in assay [9] (setting [24]); 100% in assay [10] (setting [23]); 70% in [12] (setting [24]). Further, the “Effect (% visual injury), Obs” value turned out to be 88% in assay [13] (setting [23]); 70% in assay [14] (setting [23]); 0% in assay [15] (setting [24]); 10% in [16] (setting [24]); 60% in assay [17] (setting [24]); 0% in [19] (setting [24]). In assay [20] (setting [24]), the “Effect (% visual injury), Obs” value is reported as 60%.

As for `CS(=O)(=O)c1ccc(C(=O)C2=C(Sc3ccccc3)C3CCC(C3)C2=O)c(Cl)c1` (centres unmarked) [Benzobicyclon, 3-[2-chloro-4-(methylsulfonyl)benzoyl]-4-(phenylthio)bicyclo[3.2.1]oct-3-en-2-one], the “Effect (% visual injury), Obs” value in [1] (Benzobicyclon 50 g ai/ha alone) turned out to be 100%; in assay [2] (Benzobicyclon 50 g ai/ha alone) it was 0%; in assay [3] (Benzobicyclon 50 g ai/ha alone) it was 5%; in assay [4] (Benzobicyclon 50 g ai/ha alone), 10%; in assay [6] (Benzobicyclon 50 g ai/ha alone), 0%; in assay [8] (Benzobicyclon 50 g ai/ha alone), 20%. The entries for the “Effect (% visual injury), Obs” value in assay [10] (Benzobicyclon 50 g ai/ha alone), in [13] (Benzobicyclon 50 g ai/ha alone) and in assay [14] (Benzobicyclon 50 g ai/ha alone) were 0%, 25% and 10%, respectively.

As to `Cc1ccc(S(=O)(=O)Oc2c(C(=O)c3ccc(Cl)cc3Cl)c(C)nn2C)cc1` [Pyrazolynate, (2,4-dichlorophenyl)[1,3-dimethyl-5-[[(4-methylphenyl)sulfonyl]oxy]-1H-pyrazol-4-yl]methanone], the “Effect (% visual injury), Obs” value in [1] (Pyrazolynate 225 g ai/ha alone) was determined as 10%; in assay [2] (Pyrazolynate 225 g ai/ha alone) it was 0%; in assay [3] (Pyrazolynate 225 g ai/ha alone), 0%; in assay [4] (Pyrazolynate 225 g ai/ha alone) it was 0%; in assay [8] (Pyrazolynate 225 g ai/ha alone) it was 0%; in [10] (Pyrazolynate 225 g ai/ha alone), 0%. Further, the “Effect (% visual injury), Obs” value in assay [13] (Pyrazolynate 225 g ai/ha alone) and in assay [14] (Pyrazolynate 225 g ai/ha alone) was 0% each time.
